Measurements as given in article PMC11984586, “A novel spider toxin as a selective antagonist of the Kv1 subfamily of voltage-gated potassium channels through gating modulation” (The Journal of Biological Chemistry, 2025).
Bridge positions count the residues as written; N and C are the ends. Peptide text beside a SMILES is read from it.

Columns and labels:
Assay type in all cases: cell-based
[1] = target: T1, Kv1.1/1.3 S5-S6 chimeric channel (Homo sapiens, UniProt Q09470, A352P/E350D/E351D/E353T/H355G/S369T/Y379H); assay: Whole-cell patch clamp, chimeric channel; details: +30 mV, mean ± SD
T1 construct: expressed in transfected cells; host or cells: CHO-K1
T1 sequence (Q09470 whole entry E350D/E351D/A352P/E353T/H355G/S369T/Y379H): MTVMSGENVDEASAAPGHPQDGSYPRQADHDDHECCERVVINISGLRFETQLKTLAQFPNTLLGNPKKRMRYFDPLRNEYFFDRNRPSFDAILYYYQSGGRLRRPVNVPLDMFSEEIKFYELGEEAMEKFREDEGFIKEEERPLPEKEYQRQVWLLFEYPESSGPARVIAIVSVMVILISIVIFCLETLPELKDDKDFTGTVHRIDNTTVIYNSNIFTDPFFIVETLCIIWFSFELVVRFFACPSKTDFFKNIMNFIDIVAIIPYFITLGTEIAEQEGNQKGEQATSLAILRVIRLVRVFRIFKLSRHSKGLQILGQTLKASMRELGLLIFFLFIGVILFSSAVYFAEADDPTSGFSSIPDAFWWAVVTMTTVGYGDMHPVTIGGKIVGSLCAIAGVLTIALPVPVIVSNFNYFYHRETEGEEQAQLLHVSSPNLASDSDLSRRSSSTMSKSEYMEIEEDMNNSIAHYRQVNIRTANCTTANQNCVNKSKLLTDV
Excerpt: (§1) To investigate the structural determinants underlying the differential regulatory effects of MrVIII on Kv1 channels, we employed a chimeric channel strategy. Using Kv1.3 as the template, the S1-S2, S3-S4, and S5-S6 transmembrane helices and their respective linkers from Kv1.1 were inserted to generate chimeras, generating the Kv1.3/1.1 S1-S2, Kv1.3/1.1 S3-S4, and Kv1.3/1.1 S5-S6 chimeric channels. […] These findings indicate that the S3-S4 is the key determinant for the differential inhibition of Kv1.1 and Kv1.3 by MrVIII. To further validate this conclusion, we constructed a reverse chimeric channel using Kv1.1 as the template, inserting the corresponding regions from Kv1.3 into Kv1.1. […] This finding more directly illustrates the exchange of the channel's voltage-dependence phenotype in toxin inhibition by swapping this S3-S4 between Kv1.1 and Kv1.3. […] In addition to confirming the differential role of S3-S4 between Kv1.1 and Kv1.3, we also substituted the S3-S4 of Kv1.4 and Kv1.7 into Kv1.3 to analyze MrVIII's inhibition profile. […] The IC50 for Kv1.3/1.7 S3-S4 could not be fitted, and inhi%(495 ms) was only 23.1 ± 10.0% (Fig. S2, E and F). […]
(§2) CHO-K1 cells were selected for expressing Kv channels due to their lack of endogenous Kv channels, while HEK293 or ND7/23 cells were used for Nav and Cav channel expression. […] After 4 to 6 h transfection, cells were seeded onto poly-lysine–coated coverslips, and 24 to 36 h later, transfected cells were ready for patch-clamp analysis. […]
(§3) For Kv current recordings, the bath solution contained (in mM) the following: 140 NaCl, 5 KCl, 1 MgCl2, 2 CaCl2, 10 glucose, and 10 Hepes (pH 7.3, adjusted with NaOH), and the pipette solution contained (in mM) the following: 140 KCl, 2.5 MgCl2, 11 EGTA, and 10 Hepes (pH 7.3, adjusted with KOH). […] Whole cell conductance (G) at each depolarizing voltage (V) was determined using the equation: G = I/(V−Vrev), where I is the current amplitude, and Vrev is the reversal potential. […]

[2] = target: T2, Kv1.3/1.1 S5-S6 chimeric channel (Homo sapiens, UniProt P22001, D422E/D423E/G427H/H451Y/P424A/T425E/T441S); assay: Whole-cell patch clamp, chimeric channel; details: +30 mV, 500 ms, holding −80 mV, mean ± SD, n = 4-5, read-out: IC50, Kv1.3/1.1 S5-S6 current
T2 construct: expressed in transfected cells; host or cells: CHO-K1
T2 sequence (P22001 whole entry D422E/D423E/P424A/T425E/G427H/T441S/H451Y): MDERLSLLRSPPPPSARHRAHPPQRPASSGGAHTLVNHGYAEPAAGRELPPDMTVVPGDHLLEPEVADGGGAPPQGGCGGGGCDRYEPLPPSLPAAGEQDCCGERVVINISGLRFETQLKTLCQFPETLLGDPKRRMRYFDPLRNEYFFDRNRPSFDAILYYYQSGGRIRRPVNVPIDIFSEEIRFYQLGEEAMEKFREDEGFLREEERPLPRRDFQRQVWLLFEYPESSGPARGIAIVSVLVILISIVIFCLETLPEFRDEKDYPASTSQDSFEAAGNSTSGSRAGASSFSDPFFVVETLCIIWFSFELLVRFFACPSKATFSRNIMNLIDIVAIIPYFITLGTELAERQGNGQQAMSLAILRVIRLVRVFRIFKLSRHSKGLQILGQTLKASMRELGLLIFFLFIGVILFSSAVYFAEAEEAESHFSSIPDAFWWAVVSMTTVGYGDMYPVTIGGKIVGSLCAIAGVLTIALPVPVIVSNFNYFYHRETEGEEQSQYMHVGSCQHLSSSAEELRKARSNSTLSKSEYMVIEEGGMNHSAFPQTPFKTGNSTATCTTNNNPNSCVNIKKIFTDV
Excerpt: as §1, §2, §3

[3] = tested on: Cav1.3; assay: Selectivity patch clamp, non-Kv1 channels; details: 10 μM MrVIII; n = 3–5
Procedure: (§4) CHO-K1 cells were selected for expressing Kv channels due to their lack of endogenous Kv channels, while HEK293 or ND7/23 cells were used for Nav and Cav channel expression. CHO-K1 cells were cultured in a Dulbecco's modified Eagle's medium/Ham's F-12 nutrient mixture (DMEM-F12) medium, and HEK293T and ND7/23 cells in DMEM medium, all supplemented with 10% fetal bovine serum and 1% penicillin-streptomycin (all from Gibco, Thermo Fisher Scientific, Inc) under standard conditions (37 °C, 5% CO2, and saturated humidity). These cell lines were purchased from Stem Cell Bank, Chinese Academy of Sciences. Channel plasmids were cotransfected with pEGFP-N1 (encoding GFP) into the respective cells using lipofectamine 2000, following the manufacturer's instructions (Invitrogen, Thermo Fisher Scientific, Inc.). Nav1.9-GFP plasmid was transfected into ND7/23 using the X-tremeGENE HP DNA Transfection Reagent (Roche). After 4 to 6 h transfection, cells were seeded onto poly-lysine–coated coverslips, and 24 to 36 h later, transfected cells were ready for patch-clamp analysis.
(§5) Patch clamp experiments were conducted using an electrophysiology platform comprising a MultiClamp 700B amplifier and an Axon Digidata 1550 AD/DA convertor (Axon Instruments). Data acquisition was performed with pClamp 10.5 software (Axon Instruments). All experiments were performed at room temperature.

[4] = tested on: Cav2.2; assay: Selectivity patch clamp, non-Kv1 channels; details: 10 μM MrVIII; n = 3–5
Procedure: as §4, §5

[5] = tested on: Cav3.2-3.3; assay: Selectivity patch clamp, non-Kv1 channels; details: 10 μM MrVIII; n = 3–5
Procedure: as §4, §5

[6] = tested on: Nav1.2; assay: Selectivity patch clamp, non-Kv1 channels; details: 10 μM MrVIII; n = 3–5
Procedure: as §4, §5

[7] = tested on: Nav1.4-1.5; assay: Selectivity patch clamp, non-Kv1 channels; details: 10 μM MrVIII; n = 3–5
Procedure: as §4, §5

[8] = tested on: Nav1.7-1.9; assay: Selectivity patch clamp, non-Kv1 channels; details: 10 μM MrVIII; n = 3–5
Procedure: as §4, §5

SMILES: CC[C@H](C)[C@@H]1NC(=O)[C@H](Cc2ccc(O)cc2)NC(=O)[C@H](CCC(N)=O)NC(=O)[C@@H]2CCCN2C(=O)[C@@H]2CSSC[C@H](NC(=O)[C@H](C)NC(=O)[C@H](CO)NC(=O)[C@H](CCC(=O)O)NC(=O)[C@H](CCC(=O)O)NC(=O)[C@@H](N)[C@@H](C)O)C(=O)NCC(=O)NCC(=O)N[C@@H](Cc3ccccc3)C(=O)N[C@@H](CC(N)=O)C(=O)N[C@@H](C)C(=O)N[C@@H](CCCNC(=N)N)C(=O)N[C@H]3CSSC[C@H](NC1=O)C(=O)N[C@@H](CCCCN)C(=O)NCC(=O)N[C@@H](Cc1c[nH]c4ccccc14)C(=O)N[C@@H](CCCNC(=N)N)C(=O)N[C@@H]([C@@H](C)O)C(=O)N[C@@H](CCCCN)C(=O)N[C@@H](CCCNC(=N)N)C(=O)N[C@H](C(=O)N[C@@H](CC(C)C)C(=O)N[C@@H](CC(N)=O)C(=O)N1CCC[C@H]1C(=O)O)CSSC[C@H](NC(=O)[C@H](CCCCN)NC(=O)[C@H](Cc1c[nH]cn1)NC(=O)[C@H](CC(C)C)NC(=O)[C@@H]1CCCN1C3=O)C(=O)N2 [MrVIII] (H-TEESACGGFNARCPLHKCCPQYICKGWRTKRCLNP-OH; disulfide 6-19, 13-24, 18-32; N-terminus and C-terminus assumed)
- IC50 ([1]; current at 50 ms, n = 4-5): 48.9 ± 26.6 nM
- inhi%(495 ms), Kv1.1/1.3 S5-S6 current ([1]; current at 495 ms): 50.1 ± 19.9%
- IC50 [2]: 3 ± 0.9 nM
- inhibition of Cav1.3 current [3]: did not remarkably inhibit
- inhibition of Cav2.2 current [4]: did not remarkably inhibit
- inhibition of Cav3.2-3.3 currents [5]: did not remarkably inhibit
- inhibition of Nav1.2 current [6]: did not remarkably inhibit
- inhibition of Nav1.4-1.5 currents [7]: did not remarkably inhibit
- inhibition of Nav1.7-1.9 currents [8]: did not remarkably inhibit
